Assay results published in patent publication US20150072969A1, “PHENYL ALKANOIC ACID DERIVATIVES AS GPR AGONISTS” (PIRAMAL ENTERPRISES LIMITED, priority 2012, published 2015).

Biological target: T1, human GPR40 (Homo sapiens, UniProt O14842)
T1 construct: expressed in transfected cells
Assay: Inositol phosphate accumulation assay in FFAR1 (GPR40) CHOK1 clone
Format: cell-based
Details: GPR40 agonist activity; intracellular inositol phosphate release in CHOK1 cells stably expressing recombinant human GPR40; 1 h incubation at 37° C.
Description: The inositol phosphate accumulation assay was performed to characterise the GPR40 agonist activity of the compounds of the present invention.
The assay was carried out in accordance with the method substantially as described in Diabetes, 2008, 57(8):2211-2219 and PLoS One, 2011, 6(11):e27270.
A stable FFAR1 (GPR40) CHOK1 clone was used to determine the GPR40 agonist activity of the test compounds (compounds of the present invention synthesized in the above Examples). The stable FFAR1 (GPR40) CHOK1 clone expressing recombinant human GPR40 was generated according to the procedure described herein below.
Full-length human GPR40 cDNA (Accession Number: NM_005303) was cloned into mammalian expression vector (pReceiver) and was stably transfected into (Chinese Hamster Ovary) CHOK1 cells using Amaxa technology. 2 μg of pReceiver hGPR40 were transfected into 1×10^6 CHOK1 cells in 6 well plates. The cells were split into three 100 mm cell culture plates on the second day and geneticin (800 μg/ml) was added to the cell culture on the third day. The selection medium comprising Ham's F-12 K supplemented with FBS (10%) and geneticin (800 μg/ml) was changed every three days until colonies were formed. The colonies isolated were further purified (single cell cloning) after 14 days to obtain pure isogenic single cell homogenous population of cells expressing the GPR40 receptor protein on the cell surface. GPR40 receptor expression on cell surface was measured by flow cytometry. The in-house transgenic cell line (clone) created was labeled as FFAR1 (GPR40) CHOK1 clone.
FFAR1 (GPR40) CHOK1 cells were suspended in culture medium comprising Ham's F-12 K supplemented with FBS (10%) and geneticin (800 μg/ml). Cells were seeded at a density of 2×10^4 cells per well in a 384 well tissue culture plate and cultured overnight. The medium was discarded and the cells were further resuspended in a stimulation buffer comprising HEPES (10 mM), glucose (5.5 mM), CaCl2 (1 mM), NaCl (150 mM), KCl (4.2 mM), MgCl2 (0.5 mM) and LiCl (50 mM) having a pH of 7.6. The test compounds (representative compounds of Formula (I)) 10 mM stock were prepared in DMSO and subsequently log fold dilution of the test compounds were carried out in the stimulation buffer. Various concentrations of the test compounds and the standard DMSO solution were added to each well. The plates were further incubated at 37° C., 5% CO2 incubator for 1 h. The final concentration of the test compounds in the each well varied from 1 μM to 10 μM. The DMSO concentration in the assay was 0.1% or less. After incubation, lysis reagent and anti-Tb conjugate were added to each well. The intracellular Inositol Phosphate release and accumulation in the test compounds were measured by the binding ability of the anti-Tb conjugate with the inositol phosphate inherently produced in each well as compared with the inositol phosphate coupled to dye d2 added externally to each well. The plates were then read using Perkin Elmer (Envision) plate reader and the fluorescence signal was captured. The EC50 values for the test compounds were calculated from the non linear regression sigmoidal curve graphs plotted between the concentrations of the test compounds and the fluorescence intensity.

T1 sequence (O14842 whole entry): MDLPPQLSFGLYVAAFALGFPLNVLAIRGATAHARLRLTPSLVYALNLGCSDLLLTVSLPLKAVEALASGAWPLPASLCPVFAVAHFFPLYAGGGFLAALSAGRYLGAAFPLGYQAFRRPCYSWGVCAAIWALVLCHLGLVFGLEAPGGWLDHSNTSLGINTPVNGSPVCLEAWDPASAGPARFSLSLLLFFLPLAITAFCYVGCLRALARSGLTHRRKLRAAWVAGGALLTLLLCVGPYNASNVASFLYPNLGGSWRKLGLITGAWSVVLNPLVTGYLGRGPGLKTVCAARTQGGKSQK

SMILES | EC50
O=C(O)CC1(c2ccc(OCc3cccc(-c4ccc(OCC5CCC5)cc4)c3)cc2)COC1 [Example 75, 2-(3-(4-((4′-(Cyclobutylmethoxy)-[1,1′-biphenyl]-3-yl)methoxy)phenyl)oxetan-3-yl)acetic acid] | > 500 nM
Cc1cc(OCCCS(C)(=O)=O)ccc1-c1cccc(COc2ccc(C3(CC(=O)O)COC3)cc2)c1 [Example 77, 2-(3-(4-((2′-Methyl-4′-(3-(methylsulfonyl)propoxy)-[1,1′-biphenyl]-3-yl)methoxy)phenyl)oxetan-3-yl)acetic acid] | < 100 nM
Cc1cc(-c2cccc(COc3ccc(C4(CC(=O)O)COC4)cc3)c2)cc(C)c1OCCCS(C)(=O)=O [Example 79, 2-(3-(4-((3′,5′-Dimethyl-4′-(3-(methylsulfonyl)propoxy)-[1,1′-biphenyl]-3-yl)methoxy)phenyl)oxetan-3-yl)acetic acid] | 100 to 500 nM
COc1cc(-c2cccc(COc3ccc(C4(CC(=O)O)COC4)cc3)c2)ccc1OCCCS(C)(=O)=O [Example 81, 2-(3-(4-((3′-Methoxy-4′-(3-(methylsulfonyl)propoxy)-[1,1′-biphenyl]-3-yl)methoxy)phenyl)oxetan-3-yl)acetic acid] | > 500 nM
CSc1ccc(-c2cccc(COc3ccc(C4(CC(=O)O)COC4)cc3)c2)cc1 [Example 83, 2-(3-(4-((4′-(Methylthio)-[1,1′-biphenyl]-3-yl)methoxy)phenyl)oxetan-3-yl)acetic acid] | 100 to 500 nM
CCCCSc1ccc(-c2cccc(COc3ccc(C4(CC(=O)O)COC4)cc3)c2)cc1 [Example 85, 2-(3-(4-((4′-(Butylthio)-[1,1′-biphenyl]-3-yl)methoxy)phenyl)oxetan-3-yl)acetic acid] | > 500 nM
CS(=O)(=O)CCCOc1ccc(-c2cccc(COc3ccc(C4(CC(=O)O)COC4)cc3)c2)cc1C(F)(F)F [Example 87, 2-(3-(4-((4′-(3-(Methylsulfonyl)propoxy)-3′-(trifluoromethyl)-[1,1′-biphenyl]-3-yl)methoxy)phenyl)oxetan-3-yl)acetic acid] | > 500 nM
CC(C)Sc1ccc(-c2cccc(COc3ccc(C4(CC(=O)O)COC4)cc3)c2)cc1 [Example 89, 2-(3-(4-((4′-(Isopropylthio)-[1,1′-biphenyl]-3-yl)methoxy)phenyl)oxetan-3-yl)acetic acid] | 100 to 500 nM
Cc1cc(OCCCS(C)(=O)=O)cc(C)c1-c1cccc(COc2ccc(C3(CC(=O)O)CN(S(C)(=O)=O)C3)cc2)c1 [Example 94, 2-(3-(4-((2′,6′-Dimethyl-4′-(3-(methylsulfonyl)propoxy)-[1,1′-biphenyl]-3-yl)methoxy)phenyl)-1-(methylsulfonyl)azetidin-3-yl)acetic acid] | > 500 nM
CC(=O)N1CC(CC(=O)O)(c2ccc(OCc3cccc(-c4c(C)cc(OCCCS(C)(=O)=O)cc4C)c3)cc2)C1 [Example 96, 2-(1-Acetyl-3-(4-((2′,6′-dimethyl-4′-(3-(methylsulfonyl)propoxy)-[1,1′-biphenyl]-3-yl)methoxy)phenyl)azetidin-3-yl)acetic acid] | > 500 nM
O=C(O)CC1(c2ccc(OCc3cccc(-c4ccc(C(F)(F)F)cc4)c3)c(F)c2)COC1 [Example 98, 2-(3-(3-Fluoro-4-((4′-(trifluoromethyl)-[1,1′-biphenyl]-3-yl)methoxy)phenyl)oxetan-3-yl)acetic acid] | > 500 nM
O=C(O)CC1(c2ccc(OCc3cccc(F)c3)cc2)COC1 [Example 102, 2-(3-(4-((3-Fluorobenzyl)oxy)phenyl)oxetan-3-yl)acetic acid] | > 500 nM
COc1cncc(-c2cccc(COc3ccc(C4(CC(=O)O)COC4)cc3)c2)c1 [Example 106, 2-(3-(4-((3-(5-Methoxypyridin-3-yl)benzyl)oxy)phenyl)oxetan-3-yl)acetic acid] | > 500 nM
O=C(O)CC1(c2ccc(OCc3cccc(-c4cnc(N5CCOCC5)nc4)c3)cc2)COC1 [Example 108, 2-(3-(4-((3-(2-Morpholinopyrimidin-5-yl)benzyl)oxy)phenyl)oxetan-3-yl)acetic acid] | < 100 nM
